Literature values as cited in PubChem BioAssay AID1259409 (Chemical Carcinogenesis Research Information System (CCRIS), 2018).

Tested on: rodent chemically induced tumor inhibition, incidence and multiplicity
Test: CCRIS tumor inhibitor studies

NCCCC(N)(C(=O)O)C(F)F (stereo not drawn)
tumour outcome (control, treated, inhibition, significance) (Carcinogen: 1,2-DIMETHYLHYDRAZINE, 540-73-8, Dose [Inhibitor]: 0, 0.2% IN DRINKING WATER BEGINNING 1 D PRIOR TO CARCINOGEN TREATMENT AND CONTINUING FOR DURATION OF STUDY (STUDY DURATI, Route [Inhibitor]: ORAL, Species: RAT, Strain/Sex: SPRAGUE-DAWLEY/MALE, Target Tissue: Type of Lesion: DISTAL COLON: ADENOCARCINOMA, Dose [Carcinogen]: 20 MG/KG 1/WK FOR 20 WK, Promoter: NONE USED): 94%, 67%, 29%, p<0.01 | tumour outcome (control, treated, inhibition, significance) (Carcinogen: 7,12-DIMETHYLBENZ[A]ANTHRACENE, 57-97-6, Dose [Inhibitor]: 0.3 MG IN 0.2 ML ACETONE:ETHANOL:WATER (2:1:1, V/V) 1 HR AFTER EACH PROMOTER DOSE FOR 20 WK (STUDY DURATION: 20 WK), Route [Inhibitor]: DERMAL, Species: MOUSE, Strain/Sex: CD-1/FEMALE, Target Tissue: Type of Lesion: SKIN: PAPILLOMA, Dose [Carcinogen]: 0.2 UMOL IN 0.2 ML ACETONE ONCE, Promoter: 12-O-TETRADECANOYLPHORBOL-13-ACETATE, 16561-29-8): 97%, 61%, 37%, not calculated | tumour outcome (control, treated, inhibition, significance) (Carcinogen: 7,12-DIMETHYLBENZ[A]ANTHRACENE, 57-97-6, Dose [Inhibitor]: 0.3 MG IN 0.2 ML ACETONE:ETHANOL:WATER (2:1:1,V/V) 1 HR AFTER EACH PROMOTER DOSE FOR 20 WK (STUDY DURATION: 20 WK), Route [Inhibitor]: DERMAL, Species: MOUSE, Strain/Sex: CD-1/FEMALE, Target Tissue: Type of Lesion: SKIN: PAPILLOMA, Dose [Carcinogen]: 0.2 UMOL IN 0.2 ML ACETONE ONCE, Promoter: 12-O-TETRADECANOYLPHORBOL-13-ACETATE, 16561-29-8): 84%, 63%, 25%, not calculated | tumour outcome (control, treated, inhibition, significance) (Carcinogen: 7,12-DIMETHYLBENZ[A]ANTHRACENE, 57-97-6, Dose [Inhibitor]: 1% (W/V) IN DRINKING WATER 2 D PRIOR TO 1ST PROMOTER DOSE UNTIL THE END OF EXPERIMENT (STUDY DURATION: 20 WK), Route [Inhibitor]: ORAL, Species: MOUSE, Strain/Sex: CD-1/FEMALE, Target Tissue: Type of Lesion: SKIN: PAPILLOMA, Dose [Carcinogen]: 0.2 UMOL IN 0.2 ML ACETONE ONCE, Promoter: 12-O-TETRADECANOYLPHORBOL-13-ACETATE, 16561-29-8): 100%, 43%, 57%, not calculated | tumour outcome (control, treated, inhibition, significance) (Carcinogen: 7,12-DIMETHYLBENZ[A]ANTHRACENE, 57-97-6, Dose [Inhibitor]: 2% IN DRINKING WATER (AVERAGE DAILY INTAKE: 8.53 ML/MOUSE/D) FOR 18 WK (STUDY DURATION: 18 WK), Route [Inhibitor]: ORAL, Species: MOUSE, Strain/Sex: SENCAR/FEMALE, Target Tissue: Type of Lesion: SKIN: PAPILLOMA, Dose [Carcinogen]: 10 NMOL ONCE AT 7 WK OF AGE, Promoter: 12-O-TETRADECANOYLPHORBOL-13-ACETATE, 16561-29-8): 92%, 81%, 12%, not calculated | tumour outcome (control, treated, inhibition, significance) (Carcinogen: 7,12-DIMETHYLBENZ[A]ANTHRACENE, 57-97-6, Dose [Inhibitor]: 3 MG IN 0.2 ML ACETONE:ETHANOL:WATER (2:1:1, V/V) 1 HR AFTER EACH PROMOTER DOSE FOR 20 WK (STUDY DURATION: 20 WK), Route [Inhibitor]: DERMAL, Species: MOUSE, Strain/Sex: CD-1/FEMALE, Target Tissue: Type of Lesion: SKIN: PAPILLOMA, Dose [Carcinogen]: 0.2 UMOL IN 0.2 ML ACETONE ONCE, Promoter: 12-O-TETRADECANOYLPHORBOL-13-ACETATE, 16561-29-8): 68%, 47%, 31%, not calculated | tumour outcome (control, treated, inhibition, significance) (Carcinogen: 7,12-DIMETHYLBENZ[A]ANTHRACENE, 57-97-6, Dose [Inhibitor]: 5 MG, 2 HR PRIOR TO EACH BIWEEKLY PROMOTER DOSE FOR 18 WK (STUDY DURATION: 18 WK), Route [Inhibitor]: INTRAPERITONEAL, Species: MOUSE, Strain/Sex: SENCAR/FEMALE, Target Tissue: Type of Lesion: SKIN: PAPILLOMA, Dose [Carcinogen]: 10 NMOL AT 7 WK OF AGE ONCE 18 WK, Promoter: 12-O-TETRADECANOYLPHORBOL-13-ACETATE, 16561-29-8): 92%, 77%, 16%, not calculated | tumour outcome (control, treated, inhibition, significance) (Carcinogen: 7,12-DIMETHYLBENZ[A]ANTHRACENE, 57-97-6, Dose [Inhibitor]: 6 MG IN 0.9% NACL 1 HR AFTER EACH PROMOTER DOSE (STUDY DURATION: 20 WK), Route [Inhibitor]: INTRAPERITONEAL, Species: MOUSE, Strain/Sex: CD-1/FEMALE, Target Tissue: Type of Lesion: SKIN: PAPILLOMA, Dose [Carcinogen]: 0.2 UMOL IN 0.2 ML ACETONE ONCE, Promoter: 12-O-TETRADECANOYLPHORBOL-13-ACETATE, 16561-29-8): 83%, 63%, 24%, not calculated | tumour outcome (control, treated, inhibition, significance) (Carcinogen: 7,12-DIMETHYLBENZ[A]ANTHRACENE, 57-97-6, Dose [Inhibitor]: 18 MG IN 0.9% NACL 1 HR AFTER EACH PROMOTER DOSE (STUDY DURATION: 20 WK), Route [Inhibitor]: INTRAPERITONEAL, Species: MOUSE, Strain/Sex: CD-1/FEMALE, Target Tissue: Type of Lesion: SKIN: PAPILLOMA, Dose [Carcinogen]: 0.2 UMOL IN 0.2 ML ACETONE ONCE, Promoter: 12-O-TETRADECANOYLPHORBOL-13-ACETATE, 16561-29-8): 83%, 60%, 28%, not calculated | tumour outcome (control, treated, inhibition, significance) (Carcinogen: 7,12-DIMETHYLBENZ[A]ANTHRACENE, 57-97-6, Dose [Inhibitor]: 20 MG 2/WK OR 16 WK TOGETHER WITH EACH MEZEREIN TREATMENT BEGINNING 3 WK POST CARCINOGEN DOSE (STUDY DURATION: 18 WK), Route [Inhibitor]: INTRAPERITONEAL, Species: MOUSE, Strain/Sex: SENCAR/FEMALE, Target Tissue: Type of Lesion: SKIN: PAPILLOMA, Dose [Carcinogen]: 10 NMOL ONCE FOLLOWED ONE WK LATER BY PROMOTER, Promoter: 12-O-TETRADECANOYLPHORBOL-13-ACETATE, 16561-29-8, MEZERIN, 34807-41-5, Promoter: 12-O-TETRADECANOYLPHORBOL-13-ACETATE, 16561-29-8, MEZERIN, 34807-41-5): 78%, 45%, 42%, not calculated | tumour outcome (control, treated, inhibition, significance) (Carcinogen: 7,12-DIMETHYLBENZ[A]ANTHRACENE, 57-97-6, Dose [Inhibitor]: 20 MG 2/WK TOGETHER WITH EACH PROMOTER TREATMENT BEGINNING 1 WK POST CARCINOGEN DOSE (STUDY DURATION: 18 WK), Route [Inhibitor]: INTRAPERITONEAL, Species: MOUSE, Strain/Sex: SENCAR/FEMALE, Target Tissue: Type of Lesion: SKIN: PAPILLOMA, Dose [Carcinogen]: 10 NMOL ONCE, Promoter: 12-O-TETRADECANOYLPHORBOL-13-ACETATE, 16561-29-8, MEZERIN, 34807-41-5, Promoter: 12-O-TETRADECANOYLPHORBOL-13-ACETATE, 16561-29-8, MEZERIN, 34807-41-5): 78%, 78%, 0%, not significant | tumour outcome (control, treated, inhibition, significance) (Carcinogen: 7,12-DIMETHYLBENZ[A]ANTHRACENE, 57-97-6, Dose [Inhibitor]: 20 MG 2 HR PRIOR TO EACH BIWEEKLY PROMOTER DOSE FOR 18 WK (STUDY DURATION: 18 WK), Route [Inhibitor]: INTRAPERITONEAL, Species: MOUSE, Strain/Sex: SENCAR/FEMALE, Target Tissue: Type of Lesion: SKIN: PAPILLOMA, Dose [Carcinogen]: 10 NMOL ONCE AT 7 WK OF AGE, Promoter: 12-O-TETRADECANOYLPHORBOL-13-ACETATE, 16561-29-8): 92%, 84%, 9%, not calculated | tumour outcome (control, treated, inhibition, significance) (Carcinogen: BETA IRRADIATION, Dose [Inhibitor]: 0, 1% IN DRINKING WATER DURING IRRADIATION EXPOSURE (STUDY DURATION: 950 D), Route [Inhibitor]: ORAL, Species: MOUSE, Strain/Sex: ICR/FEMALE, Target Tissue: Type of Lesion: SKIN: TUMOR, Dose [Carcinogen]: 3 GY/MIN 3/WK UNTIL EMERGENCE OF TUMORS, Promoter: NONE USED): 100%, 100%, 0%, not significant
